From patent US6133279A, “Therapeutic agents for renal diseases and organ preservatives” (Chugai Seiyaku Kabushiki Kaisha, priority 1996, dated 2000)

Tests used:
[1] = tested on: porcine kidney-derived LLC-PK1 cells; test: Protective effect against oxidized LDL-induced injury of porcine kidney-derived LLC-PK1 cells (1); assay type: cell-based; settings: Sus scrofa, LLC-PK1, 6 h, mean ± standard deviation, read-out: Cytoprotection rate (%)
Method: (§1) For the purpose of evaluating in vitro cytoprotective effect of the compounds of the present invention, a cytoprotective study was performed using porcine kidney-derived LLC-PK1 cells (ATCC-CRL-13921) injured by oxidized low-density lipoprotein (oxidized LDL).
Oxidized LDL was prepared by incubating 1 mg/ml of rabbit LDL in PBS (-) in the presence of 10 μM CuSO4 at 37° C. for 24 hours. Cell culture was carried out by plating 1.25×10^4 cells/250 μl/well on a 48-well plate containing M199 medium containing 3% FBS. Test compounds were dissolved or suspended in ethanol and added to the wells in an amount of 1.25 μl/well to a concentration of 0.1, 1 or 10 μM in each well. After 16 hours or immediately after the addition of the compounds, oxidized LDL was added to the wells. Probucol, α-tocopherol and Trolox which is a water-soluble analogue of α-tocopherol were used as reference control compounds. Oxidized LDL was diluted twice with saline and then added to the wells in an amount of 62.5 μl/well to a concentration of 100 μg/ml and the cells were cultured for 6 hours after addition of the oxidized LDL. Then, 162.5 μl/well of the culture medium were collected and measured for the lactate dehydrogenase (LDH) level (LD-L: SIGNA DIAGNOSTICS) having leaked into the medium.
The magnitude of cytoprotective effect was expressed as the cytoprotection rate which was determined by calculating the data assuming that the magnitude in wells containing oxidized LDL is 0% and that the magnitude in wells containing saline is 100%.

[2] = tested on: porcine kidney-derived LLC-PK1 cells; test: Protective effect against oxidized LDL-induced injury of porcine kidney-derived LLC-PK1 cells (2); assay type: cell-based; settings: Sus scrofa, LLC-PK1, 6 h, mean ± standard deviation, read-out: Cytoprotection rate (%)
Method: as §1, with “LDL) in the same manner as in Test example 1 with the exception of some points.” for “LDL).”
Preparation of oxidized LDL and the conditions for cell culture and addition of test compounds were the same as in Test example 1. However, oxidized LDL was not diluted with saline and added to cells in an amount of 25 μl/well to a concentration of 91 μg/ml and the cells were cultured for 6 hours after addition of the oxidized LDL. Then, 150 μl/well of the culture medium were collected and measured for the lactate dehydrogenase (LDH) level (LD-L: SIGMA DIAGNOSTICS) having leaked in the medium.

[3] = compound added 16 hours before adding oxidized LDL
[4] = compound added immediately before adding oxidized LDL

Row | SMILES | inhibition at 0.1 µM [1, 3] [%] | inhibition at 0.1 µM [1, 4] [%] | inhibition at 1 µM [1, 3] [%] | inhibition at 1 µM [1, 4] [%] | inhibition at 10 µM [1, 3] [%] | inhibition at 10 µM [1, 4] [%] | inhibition at 0.1 µM [2, 3] [%] | inhibition at 0.1 µM [2, 4] [%] | inhibition at 1 µM [2, 3] [%] | inhibition at 1 µM [2, 4] [%] | inhibition at 10 µM [2, 3] [%] | inhibition at 10 µM [2, 4] [%]
1 | CCCOc1cc(C(C)(C)C)c(O)c(C(C)(C)C)c1C [Example 31, 2,6-Di-t-butyl-3-methyl-4-propyloxyphenol] | -0.1 ± 18.7 | 6.9 ± 1.1 | 3.5 ± 18.5 | 15.7 | 68.8 ± 15.8 | 71.8 ± 6.9 | – | – | – | – | – | –
2 | CC1(C)Cc2c(cc(C(C)(C)C)c(O)c2C(C)(C)C)S1 [Example 52, 4,6-Di-t-butyl-5-hydroxy-2,2-dimethyl-2,3-dihydrobenzothiophene] | 6.5 ± 1.4 | -0.7 ± 1.1 | 41.2 ± 11.9 | 96.9 | 99.1 ± 0.1 | 99.5 ± 0.4 | – | – | – | – | – | –
3 | CC(C)(C)c1cc2c(c(C(C)(C)C)c1O)CC1(CCCC1)O2 [Example 18, 4,6-Di-t-butyl-5-hydroxy-2,3-dihydrobenzofuran-2-spiro-1'-cyclopentane] | -1.9 ± 17.3 | -4.5 ± 6.3 | 66.8 ± 22.2 | 98.4 | 99.9 ± 0.2 | 99.7 ± 0.2 | – | – | – | – | – | –
4 | CC1(CO)Cc2c(cc(C(C)(C)C)c(O)c2C(C)(C)C)S1 (stereo not drawn) [Example 63, 4,6-Di-t-butyl-5-hydroxy-2-hydroxymethyl-2-methyl-2,3-dihydrobenzothiophene] | – | – | – | – | – | – | 4.2 ± 4.4 | 5.9 ± 1.7 | 95.3 ± 3.6 | 97.3 | 100.2 ± 0.4 | 101.1 ± 0.2
5 | CC1(CC#N)Cc2c(cc(C(C)(C)C)c(O)c2C(C)(C)C)O1 (stereo not drawn) [Example 71, 4,6-Di-t-butyl-2-cyanomethyl-5-hydroxy-2-methyl-2,3-dihydrobenzofuran] | – | – | – | – | – | – | 10.4 ± 2.2 | 4.3 ± 4.1 | 26.9 ± 2.5 | 80.2 | 105.6 ± 0.6 | 107 ± 2
6 | CC(C)(C)c1cc2c(c(C(C)(C)C)c1O)CC(C(C)(C)C)O2 (stereo not drawn) [Example 13, 2,4,6-Tri-t-butyl-5-hydroxy-2,3-dihydrobenzofuran] | 32 ± 2.8 | 11.9 ± 1.9 | 55.6 ± 15 | 97.8 | 99.9 ± 0.2 | 100.4 ± 0.4 | – | – | – | – | – | –
7 | CCCc1c2c(c(C(C)(C)C)c(O)c1C(C)(C)C)CC(C)(C)O2 [Example 25, 5-Hydroxy-4,6-di-t-butyl-2,2-dimethyl-7-propyl-2,3-dihydrobenzofuran] | 47.4 ± 6 | 1.4 ± 3.8 | 7.9 ± 10.8 | 0.8 | 28.6 ± 6.4 | 66.5 ± 7.7 | – | – | – | – | – | –
8 | CC1(C(=O)O)Cc2c(cc(C(C)(C)C)c(O)c2C(C)(C)C)O1 (stereo not drawn) [Example 72, 4,6-Di-t-butyl-5-hydroxy-2-methyl-2,3-dihydrobenzofuran-2-carboxylic acid] | – | – | – | – | – | – | 2.3 ± 1.3 | 2.7 ± 4.3 | 14.8 ± 2 | 14 | 95.9 ± 1.3 | 95.2 ± 0.9
9 | CC(=O)Oc1c(C(C)(C)C)cc2c(c1C(C)(C)C)CC(C)(C)O2 [Example 3, 5-Acetoxy-4,6-di-t-butyl-2,2-dimethyl-2,3-dihydrobenzofuran] | 27 ± 18.2 | -6.5 ± 2.7 | 1.8 ± 6.8 | -4 | 23.2 ± 11.3 | 4.3 ± 3.6 | – | – | – | – | – | –
10 | CC(C)(C)c1cc2c(c(C(C)(C)C)c1O)CC1(CCCCC1)O2 [Example 19, 4,6-Di-t-butyl-5-hydroxy-2,3-dihydrobenzofuran-2-spiro-1'-cyclohexane] | – | – | – | – | – | – | 2.7 ± 1.6 | 1.2 ± 0.9 | 60.6 ± 6.1 | 86.8 ± 5.2 | 103 ± 1.2 | 101 ± 2.5
11 | C/C(=C\CCC1(C)Cc2c(cc(C(C)(C)C)c(O)c2C(C)(C)C)O1)CO (stereo not drawn) [Example 46, 4,6-Di-t-butyl-5-hydroxy-2-(5-hydroxy-4-methyl-3(E)-pentenyl)-2-methyl-2,3-dihydrobenzofuran] | 11 ± 1.5 | -8.9 ± 3.1 | 53.5 ± 10 | 101 | 104 ± 2 | 104.4 ± 0.4 | – | – | – | – | – | –
12 | CC1Cc2c(cc(C(C)(C)C)c(O)c2C(C)(C)C)S1 (stereo not drawn) [Example 51, 4,6-Di-t-butyl-5-hydroxy-2-methyl-2,3-dihydrobenzothiophene] | -6.1 ± 7.6 | 2.2 ± 4.9 | 17.8 ± 18.1 | 28.9 | 99.3 ± 0.7 | 101.4 ± 0.3 | – | – | – | – | – | –
13 | CC(C)(C)c1cc2c(c(C(C)(C)C)c1O)CC1(CCCCC1)S2 [Example 58, 4,6-Di-t-butyl-5-hydroxy-2,3-dihydrobenzothiophene-2-spiro-1'-cyclohexane] | 3.6 ± 18.3 | 11 ± 4 | 95 ± 4.2 | 74.3 | 99.3 ± 0.9 | 101 ± 0.2 | – | – | – | – | – | –
14 | CC1(C)Cc2c(cc(C(C)(C)C)c(O)c2C(C)(C)C)O1 [Example 4, 4,6-Di-t-butyl-5-hydroxy-2,2-dimethyl-2,3-dihydrobenzofuran] | 11.5 ± 8 | -9.6 ± 2.2 | 106 ± 1.2 | 103 | 100.4 ± 0.3 | 99.6 ± 0.8 | – | – | – | – | – | –
15 | CC(C)(C)c1cc2occc2c(C(C)(C)C)c1O [Example 27, 4,6-Di-t-butyl-5-hydroxybenzofuran] | 44.1 ± 24.3 | 4.2 ± 1.4 | 96 ± 0.7 | 91 | 97.7 ± 1.7 | 96.8 ± 0.5 | – | – | – | – | – | –
16 | CC(C)(C)c1cc2c(c(C(C)(C)C)c1O)CCO2 [Example 1, 4,6-Di-t-butyl-5-hydroxy-2,3-dihydrobenzofuran] | 22.3 ± 2.8 | 7.6 ± 1.4 | 104 ± 3.3 | 99.7 ± 0.4 | 100.9 ± 0.5 | 100.9 ± 0.3 | – | – | – | – | – | –
17 | CC1(CO)Cc2c(cc(C(C)(C)C)c(O)c2C(C)(C)C)O1 (stereo not drawn) [Example 48, 4,6-Di-t-butyl-5-hydroxy-2-hydroxymethyl-2-methyl-2,3-dihydrobenzofuran] | -0.5 ± 23.4 | 3.8 ± 0.3 | 84.2 ± 4.4 | 102 | 98.1 ± 0.7 | 98.2 ± 0.3 | – | – | – | – | – | –
18 | CCCCCC1(CCCCC)Cc2c(cc(C(C)(C)C)c(O)c2C(C)(C)C)S1 [Example 50, 4,6-Di-t-butyl-5-hydroxy-2,2-di-n-pentyl-2,3-dihydrobenzothiophene] | 1.9 ± 8 | 9.3 ± 3.3 | 37.4 ± 17.1 | 15.3 | 81.6 ± 4 | 99.2 ± 1.3 | – | – | – | – | – | –
19 | CN(C)CC1(C)Cc2c(cc(C(C)(C)C)c(O)c2C(C)(C)C)S1 (stereo not drawn) [Example 61, 4,6-Di-t-butyl-5-hydroxy-2-(N,N-dimethylaminomethyl)-2-methyl-2,3-dihydrobenzothiophene] | – | – | – | – | – | – | 5 ± 1.2 | 5.1 ± 1.5 | 85.7 ± 8.1 | 97.6 | 101.3 ± 0.6 | 101.7 ± 0.5
20 | CC(C)(C)c1cc2sccc2c(C(C)(C)C)c1O [Example 54, 4,6-Di-t-butyl-5-hydroxybenzo[b]thiophene] | 96 ± 0.5 | 35.9 ± 26.4 | 90 ± 5 | 96.7 | 94.8 ± 2.2 | 98.9 ± 0.4 | – | – | – | – | – | –
21 | COC(=O)C1(C)Cc2c(cc(C(C)(C)C)c(O)c2C(C)(C)C)O1 (stereo not drawn) [Example 73, 4,6-Di-t-butyl-5-hydroxy-2-methoxycarbonyl-2-methyl-2,3-dihydrobenzofuran] | – | – | – | – | – | – | 5.7 ± 1.4 | 4.8 ± 2.9 | 78.9 ± 16.9 | 97.8 | 99.7 ± 1.4 | 99.4 ± 0.3
22 | CC(C)(C)c1cc2c(c(C(C)(C)C)c1O)CC1(CCOCC1)O2 [Example 22, 4,6-Di-t-butyl-5-hydroxy-2,3-dihydrobenzofuran-2-spiro-4'-tetrahydropyran] | 3.5 ± 10.4 | -1.7 ± 0.2 | 102.2 ± 0.2 | 101 | 101 ± 0.5 | 101.1 ± 0.2 | – | – | – | – | – | –
